The term IC50 denotes the concentration needed to halve the response being measured. Read a high IC50 as lower potency.

This passage reports IC50 results from patent publication US9376433B2, “(AZA-)isoquinolinone derivatives” (MERCK PATENT GMBH, priority 2012, dated 2016).

One assay concerns the target T1, Tankyrase-2 (Homo sapiens, UniProt Q9H2K2).
T1 construct: GST-tagged Tankyrase-2 (873-1166 aa)
The assay can be described thus: Tankyrase 2 autoparsylation assay (HTRF enzyme assay). The note with it: GST-tagged Tankyrase-2 (873-1166 aa). In kind it is biochemical. Here is the method: Biochemical activity testing of Tankyrase 1 and 2: Autoparsylation assay
The autoparsylation assay is run in two steps: the enzymatic reaction in which GST-tagged Tankyrase-1, resp Tankyrase-2 transferred biotinylated ADP-ribose to itself from biotinylated NAD as co-substrate and the detection reaction where a time resolved FRET between cryptate labelled anti-GST bound to the GST tag of the enzyme and Xlent® labelled-streptavidin bound the biotin-parsylation residue is analysed. The autoparsylation activity was detectable directly via the increase in HTRF signal.
The autoparsylation assay is performed as 384-well HTRF® (Cisbio, Codolet, France) assay format in Greiner low volume nb 384-well microtiter plates and is used for high throughput screen. 250 nM GST-tagged Tankyrase-1 (1023-1327 aa), respectively about 250 nM GST-tagged Tankyrase-2 (873-1166 aa) and 5 μM bio-NAD (Biolog, Life science Inst., Bremen, Germany) as co-substrate are incubated in a total volume of 5 μl (50 mM HEPES, 4 mM Mg-chloride, 0.05% Pluronic F-68, 1.4 mM DTT, 0.5% DMSO, pH 7.7) in the absence or presence of the test compound (10 dilution concentrations) for 90 min at 30° C. The reaction is stopped by the addition of 1 μl 50 mM EDTA solution. 2 μl of the detection solution (1.6 μM SA-Xlent® (Cisbio, Codolet, France), 7.4 nM Anti-GST-K® (Eu-labelled anti-GST, Cisbio, Codolet, France) in 50 mM HEPES, 800 mM KF, 0.1% BSA, 20 mM EDTA, 0.1% CHAPS, pH 7.0) are added. After 1 h incubation at room temperature the HTRF is measured with an Envision multimode reader (Perkin Elmer LAS Germany GmbH) at excitation wavelength 340 nm (laser mode) and emission wavelengths 615 nm and 665 nm. The ratio of the emission signals is determined. The full value used is the inhibitor-free reaction. The pharmacological zero value used is XAV-939 (Tocris) in a final concentration of 5 μM. The inhibitory values (IC50) are determined using either the program Symyx Assay Explorer® or Condosseo® from GeneData.
(In TR-FRET formats the signal depends on donor and acceptor labels being close together.)

In another assay the target is T2, TNKS2 (Homo sapiens, UniProt Q9H2K2).
T2 construct: GST-tagged Tnks-2 (873-1166 aa, prepared in-house); made in house
T2 sequence (Q9H2K2 873-1166): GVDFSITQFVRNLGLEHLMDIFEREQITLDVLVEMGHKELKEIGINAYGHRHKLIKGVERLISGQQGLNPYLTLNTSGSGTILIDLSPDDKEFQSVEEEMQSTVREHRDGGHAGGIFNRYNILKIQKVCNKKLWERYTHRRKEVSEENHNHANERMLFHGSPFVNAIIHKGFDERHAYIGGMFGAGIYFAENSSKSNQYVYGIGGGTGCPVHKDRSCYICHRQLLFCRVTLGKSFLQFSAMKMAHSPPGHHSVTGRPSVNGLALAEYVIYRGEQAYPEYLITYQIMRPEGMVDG
Put plainly: TNKS2 activity ELISA (autoparsylation assay). The note with it: GST-tagged Tnks-2 (873-1166 aa), luminescence. Type of assay: biochemical. As to the method: Description of the TNKS1 and TNKS2 ELISA Assay
Biochemical activity testing of TNKS 1 and 2: activity ELISA (Autoparsylation assay)
For analysis of autoparsylation activity of TNKS 1 and 2 an activity ELISA iss performed: In the first step GST tagged TNKS is captured on a Glutathione coated plate. Then the activity assay with biotinylated NAD is performed in the absence/presence of the compounds. During the enzymatic reaction GST tagged TNKS transfers biotinylated ADP-ribose to itself from biotinylated NAD as co-substrate. For the detection streptavidin-HRP conjugate is added that binds to the biotinylated TNKS and is thereby captured to the plates. The amount of biotinylated resp. autoparsylated TNKS is detected with a luminescence substrate for HRP. The level of the luminescence signal correlats directly with the amount of autoparsylated TNKS and therefore with activity of TNKS.
The acitivity ELISA is performed in 384 well Glutathione coated microtiter plates (Express capture Glutathione coated plate, Biocat, Heidelberg, Germany). The plates are pre-equilibrated with PBS. Then the plates are incubated with 50 μl 20 ng/well GST-tagged Tnks-1 (1023-1327 aa, prepared in-house), respectively GST-tagged Tnks-2 (873-1166 aa, prepared in-house) in assay buffer (50 mM HEPES, 4 mM Mg-chloride, 0.05% Pluronic F-68, 2 mM DTT, pH 7.7) overnight at 4° C. The plates are washed 3 times with PBS-Tween-20. The wells are blocked by incubation at room temperature for 20 minutes with 50 μl blocking buffer (PBS, 0.05% Tween-20, 0.5% BSA). Afterwards the plates are washed 3 times with PBS-Tween-20. The enzymatic reaction is performed in 50 μl reaction solution (50 mM HEPES, 4 mM Mg-chloride, 0.05% Pluronic F-68, 1.4 mM DTT, 0.5% DMSO, pH 7.7) with10 μM bio-NAD (Biolog, Life science Inst., Bremen, Germany) as co-substrate in the absence or presence of the test compound (10 dilution concentrations) for 1 hour at 30° C. The reaction is stopped by 3 times washing with PBS-Tween-20. For the detection 50 μl of 20 ng/μl Streptavidin, HRP conjugate (MoBiTec, Göttingen, Germany) in PBS/0.05% Tween-20/0.01% BSA are added and the plates are incubated for 30 minutes at room temperature. After three times washing with PBS-Tween-20 50 μl of SuperSignal ELISA Femto Maximum sensitivity substrate solution (ThermoFisherScientific (Pierce), Bonn, Germany) are added. Following a 1 minute incubation at room temperature luminescence signals are measured with an Envision multimode reader (Perkin Elmer LAS Germany GmbH) at 700 nm. The full value used is the inhibitor-free reaction. The pharmacological zero value used is XAV-939 (Tocris) in a final concentration of 5 μM. The inhibitory values (IC50) are determined using either the program Symyx Assay Explorer® or Condosseo® from GeneData.
Background: An ELISA detects its analyte on a solid surface through an enzyme-linked reagent.

T1 sequence (Q9H2K2 873-1166): as above

`CC(C)(O)c1ccc(-c2cc3c(F)cc(F)cc3c(=O)[nH]2)cc1` [Compound A33, 5,7-difluoro-3-[4-(1-hydroxy-1-methyl-ethyl)-phenyl]-2H-isoquinolin-1-one]: the concentration for half-maximal inhibition (IC50) against Tankyrase-2 is 300 to 3000 nM; against TNKS2 it was less than 300 nM.

As to `CC(C)(O)c1ccc(-c2cc3ccccc3c(=O)[nH]2)cc1` [Compound A3, 3-[4-(1-hydroxy-1-methyl-ethyl)-phenyl]-2H-isoquinolin-1-one], the IC50 against Tankyrase-2 and on TNKS2 was less than 300 nM throughout.

Turning to `CC(C)(O)c1ccc(-c2cc3c(F)cccc3c(=O)[nH]2)cc1` [Compound A28, 5-fluoro-3-[4-(1-hydroxy-1-methyl-ethyl)phenyl]-2H-isoquinolin-1-one], the IC50 at Tankyrase-2 and against TNKS2 was less than 300 nM throughout.

On to `CC(C)(O)c1ccc(-c2cc3cnccc3c(=O)[nH]2)cc1` [Compound A23, 3-[4-(1-hydroxy-1-methyl-ethyl)phenyl]-2H-2,6-naphthyridin-1-one], for which the 50% inhibitory concentration (IC50) against Tankyrase-2 and at TNKS2 was less than 300 nM in each case.

Take `Cn1cc(-c2ccc(-c3cc4ccncc4c(=O)[nH]3)cc2)cn1` [Compound A14, 3-[4-(1-Methyl-1H-pyrazol-4-yl)-phenyl]-2H-[2,7]naphthyridin-1-one]: the IC50 on Tankyrase-2 is 300 to 3000 nM; against TNKS2, less than 300 nM.

In the case of `Cn1cc(-c2ccc(-c3cc4ccc(F)cc4c(=O)[nH]3)cc2)cn1` [Compound A18, 7-fluoro-3-[4-(1-methyl-1H-pyrazol-4-yl)-phenyl]-2H-isoquinolin-1-one], the IC50 was 300 to 3000 nM against Tankyrase-2 and less than 300 nM on TNKS2.

As to `CC(C)(N)c1ccc(-c2cc3ccc(F)cc3c(=O)[nH]2)cc1` [Compound A20, 3-[4-(1-amino-1-methyl-ethyl)phenyl]-7-fluoro-2H-isoquinolin-1-one], the IC50 against Tankyrase-2 and on TNKS2 was less than 300 nM throughout.

For `Cc1ccc(-c2cc3ccc(F)cc3c(=O)[nH]2)cc1` [Compound A9, 7-fluoro-3-p-tolyl-2H-isoquinolin-1-one], the IC50 against Tankyrase-2 and at TNKS2 was less than 300 nM in each case.

For the molecule `CC(C)(O)c1ccc(-c2cc3ccc(F)cc3c(=O)[nH]2)cc1` [Compound A6, 7-fluoro-3-[4-(1-hydroxy-1-methyl-ethyl)-phenyl]-2H-isoquinolin-1-one], the IC50 on Tankyrase-2 and against TNKS2 was less than 300 nM in each case.

Turning to `COC(C)(C)c1ccc(-c2cc3ccccc3c(=O)[nH]2)cc1` [Compound A15, 3-[4-(1-methoxy-1-methyl-ethyl)-phenyl]-2H-isoquinolin-1-one], the IC50 on Tankyrase-2 was 300 to 3000 nM; at TNKS2 it was less than 300 nM.

`Cc1ccc(-c2cc3c(F)cccc3c(=O)[nH]2)cc1` [Compound A12, 5-fluoro-3-p-tolyl-2H-isoquinolin-1-one]: the IC50 is 300 to 3000 nM against Tankyrase-2 and less than 300 nM against TNKS2.

Turning to `C=C(C)c1ccc(-c2cc3ccc(F)cc3c(=O)[nH]2)cc1` [Compound A17, 7-fluoro-3-(4-isopropenyl-phenyl)-2H-isoquinolin-1-one], the values for the concentration for half-maximal inhibition (IC50) at Tankyrase-2 and against TNKS2 were 300 to 3000 nM and less than 300 nM, respectively.

As for `Cc1ccc(-c2cc3cccc(F)c3c(=O)[nH]2)cc1` [Compound A11, 8-fluoro-3-p-tolyl-2H-isoquinolin-1-one], the 50% inhibitory concentration (IC50) on Tankyrase-2 and against TNKS2 was less than 300 nM throughout.

For the molecule `CC(C)(O)c1ccc(-c2cc3cc(F)ccc3c(=O)[nH]2)cc1` [Compound A5, 6-fluoro-3-[4-(1-hydroxy-1-methyl-ethyl)-phenyl]-2H-isoquinolin-1-one], the IC50 against Tankyrase-2 is 300 to 3000 nM; on TNKS2 it was less than 300 nM.

As for `Cc1ccc(-c2cc3cc(F)ccc3c(=O)[nH]2)cc1` [Compound A10, 6-fluoro-3-p-tolyl-2H-isoquinolin-1-one], the IC50 was 300 to 3000 nM on Tankyrase-2 and less than 300 nM at TNKS2.

`CC(C)(OCCO)c1ccc(-c2cc3ccc(F)cc3c(=O)[nH]2)cc1` [Compound A16, 7-fluoro-3-{4-[1-(2-hydroxy-ethoxy)-1-methyl-ethyl]-phenyl}-2H-isoquinolin-1-one]: the half-inhibitory concentration (IC50) against Tankyrase-2 and against TNKS2 was less than 300 nM each time.

For the molecule `CC(C)(O)c1ccc(-c2cc3ccncc3c(=O)[nH]2)cc1` [Compound A24, 3-[4-(1-hydroxy-1-methyl-ethyl)phenyl]-2H-2,7-naphthyridin-1-one], the IC50 at Tankyrase-2 and against TNKS2 was less than 300 nM in each case.

As for `Cc1ccc(-c2cc3c(C)cccc3c(=O)[nH]2)cc1` [Compound A29, 5-methyl-3-(p-tolyl)-2H-isoquinolin-1-one], the values for the half-inhibitory concentration (IC50) against Tankyrase-2 and against TNKS2 were 300 to 3000 nM and less than 300 nM, respectively.

`CC(C)(O)c1ccc(-c2cc3cccc(F)c3c(=O)[nH]2)cc1` [Compound A27, 8-fluoro-3-[4-(1-hydroxy-1-methyl-ethyl)phenyl]-2H-isoquinolin-1-one]: the IC50 at Tankyrase-2 and on TNKS2 was less than 300 nM throughout.
